≈ marks a conversion by molar mass, not a printed value.
Columns and labels:
[Candida] auris [1] = Antifungal activity against FCZ-resistant Candida auris 918 assessed as growth inhibition measured after 48 hrs incubation by CLSI based micro-dilution broth method; format: functional; settings: Candidozyma auris
Pichia kudriavzevii = test: Antifungal activity against Candida krusei 4996 assessed as growth inhibition measured after 48 hrs incubation by CLSI based micro-dilution broth method; format: functional
Nakaseomyces glabratus = test: Antifungal activity against Candida glabrata 537 assessed as growth inhibition measured after 48 hrs incubation by CLSI based micro-dilution broth method; format: functional
Candida parapsilosis = test: Antifungal activity against Candida parapsilosis 22019 assessed as growth inhibition measured after 48 hrs incubation by CLSI based micro-dilution broth method; format: functional; settings: Lodderomyces parapsilosis
Cryptococcus neoformans = test: Antifungal activity against Cryptococcus neoformans 32609 assessed as growth inhibition measured after 48 hrs incubation by CLSI based micro-dilution broth method; format: functional
Candida albicans [2] = test: Antifungal activity against FCZ-resistant Candida albicans SC5314 assessed as growth inhibition measured after 48 hrs incubation by CLSI based micro-dilution broth method; format: functional
Candida tropicalis = test: Antifungal activity against Candida tropicalis 8915 assessed as growth inhibition measured after 48 hrs incubation by CLSI based micro-dilution broth method; format: functional
Candida albicans [3] = test: Antifungal activity against FCZ-resistant Candida albicans 10231 assessed as growth inhibition measured after 48 hrs incubation by CLSI based micro-dilution broth method; format: functional
[Candida] auris [4] = Antifungal activity against FCZ-resistant Candida auris 919 assessed as growth inhibition measured after 48 hrs incubation by CLSI based micro-dilution broth method; format: functional; settings: Candidozyma auris
[5] = Metabolic stability in mouse liver microsomes assessed as half life measured upto 60 mins by LC-MS/MS analysis; format: ADME, Microsome
[6] = Metabolic stability in mouse liver microsomes assessed as intrinsic clearance measured per mg of protein upto 60 mins by LC-MS/MS analysis; format: ADME, Microsome; settings: read-out: CLH
Candida albicans [7] = test: Antifungal activity against FCZ-resistant Candida albicans strain 901 assessed as growth inhibition in presence of fluconazole measured after 48 hrs incubation by CLSI based micro-dilution broth method; format: functional
Candida albicans [8] = test: Synergistic antifungal activity against FCZ-resistant Candida albicans strain 901 assessed as fractional inhibitory concentration index measured after 48 hrs in presence of FCZ by CLSI based micro-dilution broth method; format: functional
Candida albicans [9] = test: Synergistic antifungal activity against FCZ-resistant Candida albicans strain 904 assessed as fractional inhibitory concentration index measured after 48 hrs in presence of FCZ by CLSI based micro-dilution broth method; format: functional
Candida albicans [10] = test: Antifungal activity against FCZ-resistant Candida albicans strain 904 assessed as growth inhibition measured after 48 hrs incubation by CLSI based micro-dilution broth method; format: functional
Candida albicans [11] = test: Antifungal activity against FCZ-resistant Candida albicans strain 901 assessed as growth inhibition measured after 48 hrs incubation by CLSI based micro-dilution broth method; format: functional
Candida albicans [12] = test: Antifungal activity against FCZ-resistant Candida albicans strain 904 assessed as growth inhibition in presence of fluconazole measured after 48 hrs incubation by CLSI based micro-dilution broth method; format: functional
Candida albicans [13] = test: Antifungal activity against FCZ-resistant Candida albicans strains assessed as growth inhibition measured after 48 hrs incubation by CLSI based micro-dilution broth method; format: functional

SMILES	MIC80 ([Candida] auris [1])	MIC80 (Pichia kudriavzevii)	MIC80 (Nakaseomyces glabratus)	MIC80 (Candida parapsilosis)	MIC80 (Cryptococcus neoformans)	MIC80 (Candida albicans [2])	MIC80 (Candida tropicalis)	MIC80 (Candida albicans [3])	MIC80 ([Candida] auris [4])	half-life [5]	microsomal CLint [6]	MIC80 (Candida albicans [7])	fractional inhibitory concentration index (FICI) (Candida albicans [8])	fractional inhibitory concentration index (FICI) (Candida albicans [9])	MIC80 (Candida albicans [10])	MIC80 (Candida albicans [11])	MIC80 (Candida albicans [12])	MIC80 (Candida albicans [13])
O=[N+]([O-])c1ccc(O)c(/C=N/Nc2nc(NCc3ccccc3)nc(NCc3ccc(F)cc3)n2)c1	4 µg/mL (≈ 8.19 µM)	1 µg/mL (≈ 2.05 µM)	0.5 µg/mL (≈ 1.02 µM)	4 µg/mL (≈ 8.19 µM)	2 µg/mL (≈ 4.09 µM)	2 µg/mL (≈ 4.09 µM)	2 µg/mL (≈ 4.09 µM)	8 µg/mL (≈ 16.4 µM)	16 µg/mL (≈ 32.8 µM)									
O=[N+]([O-])c1ccc(O)c(/C=N/Nc2nc(NCc3ccco3)nc(NCc3ccco3)n2)c1	4 µg/mL (≈ 8.88 µM)	1 µg/mL (≈ 2.22 µM)	1 µg/mL (≈ 2.22 µM)	4 µg/mL (≈ 8.88 µM)	2 µg/mL (≈ 4.44 µM)	2 µg/mL (≈ 4.44 µM)	2 µg/mL (≈ 4.44 µM)	8 µg/mL (≈ 17.8 µM)	4 µg/mL (≈ 8.88 µM)									
Cc1ncc2n1-c1ccc(Cl)cc1C(c1ccccc1F)=NC2 [MIDAZOLAM]										3.09 min	1120 µL/min/mg							
Oc1ccccc1/C=N/Nc1nc(NCc2ccc(F)cc2)nc(NCc2ccc(F)cc2)n1	> 64 µg/mL	> 64 µg/mL	4 µg/mL (≈ 8.67 µM)	8 µg/mL (≈ 17.3 µM)	8 µg/mL (≈ 17.3 µM)	> 64 µg/mL	> 64 µg/mL	> 64 µg/mL	> 64 µg/mL			0.5 µg/mL	0.25	0.25	4 µg/mL (≈ 8.67 µM)	4 µg/mL (≈ 8.67 µM)	0.5 µg/mL	
O=[N+]([O-])c1cccc(/C=N/Nc2nc(NCc3ccc(F)cc3)nc(NCc3ccc(F)cc3)n2)c1O	4 µg/mL (≈ 7.9 µM)	2 µg/mL (≈ 3.95 µM)	1 µg/mL (≈ 1.97 µM)	2 µg/mL (≈ 3.95 µM)	1 µg/mL (≈ 1.97 µM)	8 µg/mL (≈ 15.8 µM)	2 µg/mL (≈ 3.95 µM)	32 µg/mL (≈ 63.2 µM)	32 µg/mL (≈ 63.2 µM)			0.25 µg/mL	0.25	0.38	1 µg/mL (≈ 1.97 µM)	2 µg/mL (≈ 3.95 µM)	0.25 µg/mL	
O=[N+]([O-])c1cccc(O)c1/C=N/Nc1nc(NCc2ccc(F)cc2)nc(NCc2ccc(F)cc2)n1	> 64 µg/mL	> 64 µg/mL	2 µg/mL (≈ 3.95 µM)	> 64 µg/mL	> 64 µg/mL	> 64 µg/mL	> 64 µg/mL	> 64 µg/mL	> 64 µg/mL			0.25 µg/mL	0.19	0.38	4 µg/mL (≈ 7.9 µM)	4 µg/mL (≈ 7.9 µM)	1 µg/mL	4 µg/mL (≈ 7.9 µM)
O=[N+]([O-])c1ccc(O)c(/C=N/Nc2nc(NCc3ccc(F)cc3)nc(N3CCOCC3)n2)c1	> 64 µg/mL	2 µg/mL (≈ 4.27 µM)	1 µg/mL (≈ 2.13 µM)	32 µg/mL (≈ 68.3 µM)	4 µg/mL (≈ 8.54 µM)	4 µg/mL (≈ 8.54 µM)	4 µg/mL (≈ 8.54 µM)	16 µg/mL (≈ 34.2 µM)	> 64 µg/mL									
COc1ccc(Nc2nc(N/N=C/c3cc([N+](=O)[O-])ccc3O)nc(Nc3ccc(OC)cc3)n2)cc1	> 64 µg/mL	1 µg/mL (≈ 1.99 µM)	2 µg/mL (≈ 3.98 µM)	> 64 µg/mL	2 µg/mL (≈ 3.98 µM)	2 µg/mL (≈ 3.98 µM)	4 µg/mL (≈ 7.96 µM)	16 µg/mL (≈ 31.8 µM)	> 64 µg/mL									

From ChEMBL document CHEMBL5528067, “From Synergy to Monotherapy: Discovery of Novel 2,4,6-Trisubstituted Triazine Hydrazone Derivatives with Potent Antifungal Potency In Vitro and In Vivo” (J Med Chem, 2024)
